Test results as given in patent US7592436B2, “Gene encoding a protein having aurone synthesis activity” (International Flower Developments Proprietary Limited, priority 1998, dated 2009).

Columns and labels:
[1] = system: aurone synthase; experiment: Measurement of aurone synthase activity (HPLC); format: biochemical, snapdragon; conditions: for Conversion of substrate to aureusidin by purified aurone synthase: product confirmed by HPLC analysis
Procedure: The reaction was started by adding 5 μl of THC, having an absorbance of 462 at 366 nm in ethanol, to 50 μl of 1 M sodium acetate buffer (pH 5.0) and 350 μl of crude enzyme solution diluted with water. After allowing to react for 1 hour at 30° C., and adding 100 μl of an aqueous solution of 90% (v/v) acetonitrile containing 1% (v/v) TFA to stop the reaction, activity was measured by HPLC. The crude enzyme solution in each purification step described later in Example 4 was measured.
The YMC J'Sphere ODS M80 column (4.6×150 mm) was used and the flow rate was set at 0.7 ml/min. Using a 0.1% aqueous solution of TFA as solvent A, and a 90% aqueous solution of acetonitrile containing 0.1% TFA as solvent B, a sample was injected into the column, after which the ratio of A:B was held at 7:3 for first 3 minutes, and then changed to 6:4 by a linear concentration gradient for next 10 minutes. This concentration was maintained for 5 minutes. After changing the ratio of A:B to 7:3 for next one minute, this concentration was maintained for 5 minutes.

[2] = system: tyrosinase; experiment: Aurone synthesis activity of tyrosinase; format: biochemical, Neurospora; conditions: HPLC
Procedure: After mixing tyrosinase (Sigma catalog no. T7755; 0.04 mg/ml, 10 μl), 0.1 M sodium phosphate buffer (pH 6.5, 335 μl), 9% CHAPS (20 μl) and milli-Q water (20 μl), the mixture was incubated for 10 minutes at 30° C., followed by the addition of tetrahydroxychalcone (THC, 4.3 mM in ethanol, 15 μl), stirring immediately and reacting for 30 minutes at 30° C. After reaction, 100 μl of reaction stopping solution (10% trifluoroacetate solution containing 90% acetonitrile) was added to the reaction mixture to stop the reaction, followed by HPLC analysis. Analysis was performed in the same manner as described in Example 3. Water was used instead of tyrosinase as a control.
In addition, the reaction was carried out under the same conditions using pentahydroxychalcone (PHC) instead of THC as a substrate, and using 0.116 M sodium citrate phosphate buffer (pH 5.4) as a buffer. Similarly, water was used instead of tyrosinase as a control.

Row | Structure (SMILES) | Conversion of substrate to aureusidin by purified aurone synthase [1] | Reaction product formed from substrate by tyrosinase ([2]; 0.1 M sodium phosphate buffer pH 6.5, 30 minutes at 30° C.) | Change of enzyme activity on addition ([1]; hydrogen peroxide added) | Reaction product formed from substrate by tyrosinase ([2]; 0.116 M sodium citrate phosphate buffer pH 5.4, 30 minutes at 30° C.)
1 | O=C(/C=C/c1ccc(O)cc1)c1c(O)cc(O)cc1O [THC, tetrahydroxychalcone] | converts both THC and pentahydroxychalcone to aureusidin | reaction product aureusidin |  | 
2 | OO [hydrogen peroxide] |  |  | activity increased somewhat | 
3 | O=C(/C=C/c1ccc(O)c(O)c1)c1c(O)cc(O)cc1O [pentahydroxychalcone] | converts both THC and pentahydroxychalcone to aureusidin |  |  | reaction product aureusidin
